ChEMBL document CHEMBL1136416, “Identification of a stable chymase inhibitor using a pharmacophore-Based database search” (Bioorg Med Chem Lett, 2003)
Where “and” joins values, the source holds several entries; their conditions need not be identical. Equal entries are not always repeated.

target: T1, Chymase (Homo sapiens, UniProt P23946); experiment: Inhibitory concentration against serine protease chymase was determined; details: not given
T1 sequence (P23946 whole entry): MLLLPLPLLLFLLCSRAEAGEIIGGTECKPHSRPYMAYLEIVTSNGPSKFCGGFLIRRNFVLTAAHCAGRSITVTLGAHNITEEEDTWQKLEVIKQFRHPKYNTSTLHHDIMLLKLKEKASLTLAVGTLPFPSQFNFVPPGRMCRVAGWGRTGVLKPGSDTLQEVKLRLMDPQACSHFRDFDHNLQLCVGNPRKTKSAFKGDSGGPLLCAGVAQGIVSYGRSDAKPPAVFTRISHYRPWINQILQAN

Row | Structure (SMILES) | IC50
1 | CCCS(=O)(=O)c1ccc(NS(=O)(=O)c2sc3ccc(Cl)cc3c2C)cc1 | 0.909 µM

system: not listed separately; experiment: Percent compound remaining in human plasma after incubation for 60 min at 37 C.; format: ADME, cell-free; details: read-out: Stability

Row | Structure (SMILES) | remaining at 1 h
2 | O=C(Oc1ccc(Cl)cc1)c1cnc(C2COc3ccccc3O2)s1 (centres undefined) | 11.8%
3 | CCCS(=O)(=O)c1ccc(NS(=O)(=O)c2sc3ccc(Cl)cc3c2C)cc1 | 100%

system: not listed separately; experiment: Percent remaining in human plasma after incubation for 60 min at 37 C.; format: ADME, cell-free; details: read-out: Stability

Row | Structure (SMILES) | remaining at 1 h
4 | CSc1[nH]nc(NC(=O)c2ccc(Cl)cc2)c1S(=O)(=O)c1ccc(Cl)cc1 | 6.4%

target: T2, Chymase (Homo sapiens) (UniProt P23946); experiment: Inhibitory activity against serine protease chymase was determined; details: not given
T2 sequence (whole entry): T1 sequence (P23946 whole entry)

Row | Structure (SMILES) | Inhibitory activity
5 | Cc1ccc(-c2nnc(NC(=O)c3ccc4ccccc4c3)s2)o1 | 87 µM
6 | O=C(Nc1nnc(Sc2nc3ccccc3s2)s1)c1ccc(Cl)cc1 | 0.308 µM
7 | Cc1ccc(/C=C2\SC(=O)N(C(=O)c3cccc(-c4ccccc4)c3)C2=O)o1 | 0.683 µM
8 | Cc1ccc(C(=O)Sc2nnc(SC(=O)c3ccc(C)cc3)s2)cc1 | 3.24 µM
9 | O=C1ON(S(=O)(=O)c2ccc3ccccc3c2)C(=O)/C1=C/c1ccc(F)cc1 | 608 µM
10 | Cc1ccc(/C=C2\SCCN(C(=O)c3ccc4ccccc4c3)C2=O)o1 | 4.54 µM
11 | Cc1ccc(C(=O)Nc2nnc(C(=O)c3ccccc3)s2)cc1 | 75 µM
12 | Cc1ccc(/C=C2\SC(=O)N(C(=O)c3ccc4ccccc4c3)C2=O)o1 | 0.097 µM
13 | O=C1S/C(=C/c2ccc(O)cc2)C(=O)N1S(=O)(=O)c1ccc2ccccc2c1 | 0.691 µM
14 | Cc1ccc(/C=C2\SC(=O)N(Cc3ccc4ccccc4c3)C2=O)o1 | 190 µM
15 | O=C(Nc1nnc(Sc2nc3ccccc3s2)s1)C(Cl)(Cl)Cl | 14 µM
16 | O=C1S/C(=C\c2ccsc2)C(=O)N1C(=O)c1ccc2ccccc2c1 | 0.081 µM
17 | Cc1ccc(/C=C2\SC(=O)N(CSc3ccc4ccccc4c3)C2=O)o1 | 141 µM
18 | O=C1ON(C(=O)c2ccc3ccccc3c2)C(=O)/C1=C/c1ccc(O)c(O)c1 | 53 µM
19 | O=c1n(S(=O)(=O)c2ccc3ccccc3c2)c2ccccc2n1S(=O)(=O)c1ccc2ccccc2c1 | 3.46 µM
20 | COC(=O)C(c1ccc2ccccc2c1)N1C(=O)S/C(=C\c2ccc(C)o2)C1=O (centres undefined) | 4.22 µM
21 | O=C1SC(Cc2ccc3ccccc3c2)C(=O)N1Cc1ccoc1 (centres undefined) | 273 µM
22 | O=C(Nc1nnc(Sc2nc3ccccc3s2)s1)c1ccccc1 | 1.34 µM
23 | Clc1ccc(CNc2nnc(Sc3nc4ccccc4s3)s2)cc1 | 321 µM
24 | O=C(Nc1nnc(SCc2nc3ccccc3s2)s1)c1ccc(Cl)cc1 | 27 µM
25 | COC(=O)c1ccc(C(=O)n2cnc3cc4ccccc4cc3c2=O)cc1 | 0.61 µM
26 | Cc1ccc(/C=C2\SC(=O)N(CS(=O)(=O)c3ccc4ccccc4c3)C2=O)o1 | 24 µM
27 | Cc1ccc(/C=C2\SC(C)(C)N(C(=O)c3ccc4ccccc4c3)C2=O)o1 | 8.91 µM
28 | O=C(Oc1ccccc1)N1C(=O)S/C(=C\c2ccco2)C1=O | 3.6 µM
29 | Cc1ccc(C(=O)Nc2nnc(SC(=O)c3ccc(C)cc3)s2)cc1 | 48 µM
30 | O=C1c2ccccc2C(=O)N1S(=O)(=O)c1ccc2ccccc2c1 | 176 µM

same assay, conditions: concentration not given here

Row | Structure (SMILES) | inhibition
31 | O=C(Oc1ccc(Cl)cc1)c1cnc(C2COc3ccccc3O2)s1 (centres undefined) | 17.8%

target: T2, Chymase (Homo sapiens); experiment: Inhibitory activity against serine protease chymase was determined at 1 uM; details: not given

Row | Structure (SMILES) | inhibition
32 | CSc1[nH]nc(NC(=O)c2ccc(Cl)cc2)c1S(=O)(=O)c1ccc(Cl)cc1 | 36.5% and > 30%
33 | O=C(Oc1ccc(Cl)cc1)c1cnc(C2COc3ccccc3O2)s1 (centres undefined) | > 30%
34 | CCCS(=O)(=O)c1ccc(NS(=O)(=O)c2sc3ccc(Cl)cc3c2C)cc1 | > 30%
